Test results published in article PMC11091220, “Metabolism-driven in vitro/in vivo disconnect of an oral ERɑ VHL-PROTAC” (Communications Biology, 2024).
Where “and” joins values, the source holds several entries; their conditions need not be identical. Identical values can stand only once.

How the values were obtained:
[1] = Total plasma exposure of AZ’6421 and metabolite 8 in rat; type: in vivo; conditions: for Total plasma: rat, individual animals, analyte = label
Description: Fig. 8 Evidence of ER agonism of AZ’6421 and compound 8 in vitro and in vivo. a 100 nM compound or 10 nM estradiol (E2) were incubated with Ishikawa cells for 48 h and lysates measured for PR expression by western blot. b Normalised rat uterine weight shown as % change from respective vehicle control after 4 days dosing. c Representative H&E stained images taken from sections of uterine horn after 4 days of dosing. d Total plasma exposure of AZ’6421 and its metabolite 8 following dosing of 100 mg/kg BID or 30 mg/kg BID AZ’6421. Plasma samples were taken 4 hr after the 4th dose, at the same time as the uterus was weighed and sectioned for H&E staining.
Each plasma sample ([…]) was prepared using an appropriate dilution factor, and compared against an 11-point standard calibration curve (1-10000 nM) prepared in DMSO and spiked into blank plasma. Acetonitrile ([…]) was added with the internal standard, followed by centrifugation at 3000 rpm for 10 minutes. The supernatant ([…]) was then diluted in […] acetonitrile:water (75:25) and analyzed via UPLC-MS/MS.

[2] = Metabolite identification in mouse hepatocytes; type: in vitro ADME; conditions: in vitro mouse hepatocytes
Description: CD-1 male mouse hepatocytes (BioreclamationIVT, M005052, lot:LRH) were thawed and warmed to 37 °C using Lebovitz’s L-15 medium and Cell yield/cell density and viability were assessed by a Nexcelom cell counter.
Incubations were conducted on a Hamilton robot, 0.25 mL of the hepatocyte suspension (1 million cells/mL) was transferred for each incubation into Nunc 96-deepwell plate. Substrate (2.5 µL of 0.5 mM in acetonitrile) was added (final concentration of 5 µM) and then incubated for 60 minutes at 37 °C. The samples were quenched with an equal volume of acetonitrile, spun at 3500 rpm for 10 minutes and 0.2 mL of the supernatant was transferred into 0.6 mL of water for analysis by UHPLC-UV-HRAMS.

ER-regulated genes = assay: Gene expression analysis of ER-regulated genes (qPCR), MCF7 and CAMA1 cells; type: cell-based; conditions: 100 nM, 0.1 nM estradiol, 24 hours
Description: MCF7 and CAMA1 cells were plated at 1.2 x 10^6 cells/well into 6-well TC-treated plates in phenol red-free RPMI containing 5% charcoal-stripped FBS (F6765, Sigma) and treated with 0.1 nM estradiol in the presence of 100 nM fulvestrant, 100 nM AZD9833, 100 nM AZ’6421 or DMSO control for 24 hours. A non-estradiol-treated control was also included with 3 biological replicates per condition. Samples were harvested in 1 mL of QIAzol Lysis Buffer and snap-frozen. RNA was extracted using the RNeasy 96 QIAcube HT total RNA Cell with DNAse treatment following manufacturer instructions. Samples were randomized over 96-well plates. RNA concentration was quantified using the Qubit RNA BR kit (# Q10213 Invitrogen) and RNA integrity was analyzed on a bioanalyzer using the RNA 6000 Nano Kit (# 5067-1511-Agilent) following the manufacturer’s instructions. Targeted gene expression was performed using a 48 × 48 or 96 × 96 Fluidigm dynamic array (Fluidigm, San Francisco CA, USA) and Taqman primers (Thermo Scientific, Waltham, MA). […] The Fluidigm Array was then primed and loaded on an IFC Controller and quantitative PCR (qPCR) experiments were run on the Biomark System, using the standard Default_10 min_HotStart protocol or M96_default protocol for 48 × 48 or 96 × 96 chips, respectively. Data were collected and analysed using the Fluidigm Real-Time PCR Analysis software to generate the Ct values. […]

[3] = AZ'6421 dosed 30 mg/kg BID, 30 mg/kg
[4] = AZ'6421 dosed 100 mg/kg BID, 100 mg/kg

C[C@@H]1Cc2c([nH]c3ccccc23)[C@@H](c2c(F)cc(OCCC(=O)O)cc2F)N1CC(C)(C)F [Compound 8]
level in rat plasma ([1]; after dosing AZ’6421): found at sizable levels in rat plasma | Total plasma [1, 3]: 1.0069 µM and 2.5325 µM and 3.6803 µM and 2.8962 µM and 0.8884 µM | Total plasma [1, 4]: 7.8737 µM and 9.6410 µM and 6.9833 µM and 3.4205 µM and 4.6683 µM

Cc1ncsc1-c1ccc(CNC(=O)[C@@H]2C[C@@H](O)CN2C(=O)[C@@H](NC(=O)COCCCOCCCOc2cc(F)c([C@@H]3c4[nH]c5ccccc5c4C[C@@H](C)N3CC(C)(C)F)c(F)c2)C(C)(C)C)cc1 [Compound 5]
major metabolic liability [2]: formation of a carboxylic acid metabolite 8 | Total plasma [1, 3]: 0.1461 µM and 0.4943 µM and 0.0995 µM | Total plasma [1, 4]: 1.2846 µM and 2.0194 µM and 0.7522 µM and 0.1020 µM and 0.0689 µM | expression of ER-regulated genes (ER-regulated genes): effectively supressed the expression of a range of ER-regulated genes
